US11672814B2, “NGNA compositions and methods of use” (priority 2008, dated 2023)

Tested on: influenza A (H1N1)
Assay: Influenza virus mouse model, feed supplemented with N5G
Type: in vivo
Excerpt: The overall purpose of the study was to determine whether the N5G nutritional supplement has the ability to have significant impact on clinical disease outcomes caused by influenza virus in a mouse animal model.
The experimental design included adherence to a strict feeding schedule, which included 30 days of acclimation of mice to a defined base feed (AIN-93M) provided by Purina TestDiet, Inc. Control animals remained continuously fed with the defined base feed, while the experimental mouse group was fed with the base feed supplemented with 0.35% of N5G.
Experimental and control mouse groups were infected intranasally with 107.5 TCID50 influenza A (H1N1) with each mouse receiving 5iL of viral inoculum per nostril. The experimental parameters followed during the study were: 1) mouse weight changes; 2) food intake changes; 3) clinical signs of disease; 4) lung tissue pathology; 5) lung consolidation scores; 6) changes in viral loads.
Overall, the experimental design was executed without any major obstacles. As expected, there was minor occasional wasting of feed in some cages (mice chewed on feed which was dropped on the bottom of the cage). In every instance noted on daily observations, the residual feed was weighed, but it was excluded in any statistical calculations as well as in the calculation of baseline feed intake.
As expected, all influenza infected mice developed clinical signs of disease starting 2 days post infection. Clinical signs included: 1) ruffled fur, 2) inactivity, 3) hunching, 4) death, 5) weight loss, and 6) loss of appetite.
Clinical signs 1-4 were scored by two independent observers using a scale of 0-5. The cumulative scores were plotted and statistically analyzed. Statistical analyses were performed using SAS v.9.1.3. An analysis of variance (ANOVA) of a repeated measures design was calculated in a split-plot arrangement of treatments, with the treatment group on the main plot, and the subplot including day and treatment by day interactions. Interaction of pairwise comparisons of least square means was performed with a pairwise t-test with pre-planned comparisons. This statistical methodology was used for all comparisons in the study.
D. The most important aspect of influenza infections is the resultant lung immunopathology. Typically, viral replication as well as infiltration of lymphocytes causes substantial damage to lung tissues. In fact, it is believed that infiltration of lymphocytes and their negative effects on lungs tissues is the most important parameter of influenza-related morbidity and mortality in humans. Consequently, particular care was taken to examine the tissues of mice for signs of histopathological changes. The following evaluation criteria were utilized to score these changes: 1) Lung consolidation scores (LCS); 2) Histopathological scores (HS). LCS were rated as follows: grade 1: no plum coloration; grade 2: minimum plum coloration; grade 3: medium plum coloration; grade 4: maximum plum coloration. HS were rated as follows: Grade 0: no overt histological change; grade 1+: only bronchial/bronchiolar and/or peri-bronchial/bronchiolar/vascular changes; grade 2+: 1-10% pulmonary parenchyma affected; grade 3+: 11-30% pulmonary parenchyma affected; grade 4:+: 31-50% pulmonary parenchyma affected; grade 5+: greater than 50% pulmonary parenchyma affected.

O=C(CO)N[C@H]1[C@H]([C@H](O)[C@H](O)CO)O[C@](O)(C(=O)O)C[C@@H]1O [NGNA, n-glycolylneuraminic acid]
Viral titers from lung homogenates (mice, 2 days post infection, treated and untreated): less than 100 plaque forming units (PFU) per 250iL of homogenate
Clinical signs 1-4 scores (ruffled fur, inactivity, hunching, death), treated versus untreated (mice, base feed with 0.35% N5G, days 6-8 post infection, FIG. 3): Statistically significant differences
Histopathological scores, treated versus untreated (mice, day 6 post infection, grades 0 to 5+, FIG. 7): statistically significant difference
Viral titers from lung homogenates, treated versus untreated (mice, days 2, 4, 6, 8 and 21 post infection, one mouse per group per time point): No significant differences
% change in mouse weights, untreated versus treated (mice, days 3-9 post infection, FIG. 5): highly significant reduction in body weights was observed in the control mouse group
% daily feed intake (mice, days 5-6 post infection, FIG. 4, group with the loss not stated): statistically significant loss of appetite
Lung consolidation scores, treated versus untreated (mice, grades 1-4, FIG. 6): “trend” toward a healthier status of treated versus untreated mice. However, there results were not statistically significant
Effect on ameliorating clinical symptoms and adverse pathological implication of influenza infection (mouse experimental model, overall conclusion): significant effect
